In patent US8674118B2, “Compounds and methods for the treatment or prevention of flavivirus infections” (priority 2005, dated 2014):

tested on: HCV RNA replication (replicon cell lines Huh-7, 5.2 and ET); assay: Cell-Based Luciferase Reporter HCV RNA Replication Assay; conditions: Hepatitis C virus, Huh-7, 96 h

**Q.** With CCON=C1CCC(N(c2cc(C3=CCCCC3)sc2C(=O)O)C(=O)[C@H]2CC[C@H](C)CC2)CC1 (relative stereo) [Compound 54, 5-cyclohex-1-enyl-3-[(4-ethoxyimino-cyclohexyl)-(trans-4-methyl-cyclohexanecarbonyl)-amino]-thiophene-2-carboxylic acid] as the molecule, how does the IC50 read?
**A.** The IC50 was under 5 µM.

same assay, conditions: Hepatitis C virus, Huh-7, 96 h, Huh-7, 5.2 or ET replicon cells, luciferase counts after 4 days incubation; read-out: IC50

**Q.** How did the IC50 turn out when CC1CCC(C(=O)N(c2cc(C3=CCCCC3)sc2C(=O)O)C2CCC3CCCCC3C2)CC1 (mixture of isomers) [Compound 65, 5-cyclohex-1-enyl-3-[(cis/trans-decahydro-naphthalen-2-yl)-(4-trans-methyl-cyclohexanecarbonyl)-amino]-thiophene-2-carboxylic acid] was run?
**A.** Its IC50 is under 5 µM.

**Q.** For CC1CCC(C(=O)N(c2cc(C3CCC(O)CC3)sc2C(=O)O)C2CCC(O)CC2)CC1 (mixture of isomers) [Compound 85, 5-(4-cis/trans-hydroxy-cyclohexyl)-3-[(4-trans-hydroxy-cyclohexyl)-(4-trans-methyl-cyclohexanecarbonyl)-amino]-thiophene-2-carboxylic acid], which IC50 is on record?
**A.** Its IC50 is 5 to 25 µM.

**Q.** COCC1CCC(N(C(=O)C2CCC(C)CC2)c2cc(C3=CCCCC3)sc2C(=O)O)CC1 (mixture of isomers) [Compound 126, 5-cyclohex-1-enyl-3-[(4-cis/trans-methoxymethyl-cyclohexyl)-(4-trans-methyl-cyclohexanecarbonyl)-amino]-thiophene-2-carboxylic acid] was tested. Which IC50 did it give?
**A.** Its IC50 is under 5 µM.

**Q.** For CC1CC=C(c2cc(N(C(=O)[C@H]3CC[C@H](C)CC3)[C@H]3CC[C@H](O)CC3)c(C(=O)O)s2)CC1 (relative stereo) [Compound 4, 3-[(trans-4-Hydroxy-cyclohexyl)-(trans-4-methyl-cyclohexanecarbonyl)-amino]-5-(4-methyl-cyclohex-1-enyl)-thiophene-2-carboxylic acid], which IC50 is on record?
**A.** The IC50 was under 5 µM.

**Q.** How did the IC50 turn out when CC(C)(C)C1CC=C(c2cc(N(C(=O)[C@H]3CC[C@H](C)CC3)[C@H]3CC[C@H](O)CC3)c(C(=O)O)s2)CC1 (relative stereo) [Compound 13, 5-(4-Tert-butyl-cyclohex-1-enyl)-3-[(trans-4-hydroxy-cyclohexyl)-(trans-4-methyl-cyclohexanecarbonyl)-amino]-thiophene-2-carboxylic acid] was run?
**A.** The IC50 was under 5 µM.

**Q.** Which IC50 does the source give for C[C@H]1CC[C@H](C(=O)N(c2cc(C3=CCCCC3)sc2C(=O)O)C2CCC(OC(=O)N3CCOCC3)CC2)CC1 (relative stereo) [Compound 18, Morpholine-4-carboxylic acid 4-[(2-carboxy-5-cyclohex-1-enyl-thiophen-3-yl)-(trans-4-methyl-cyclohexanecarbonyl)-amino]-cyclohexyl ester] here?
**A.** The IC50 was under 5 µM.

**Q.** How did the IC50 turn out when COC(=O)C(NC(=O)O[C@H]1CC[C@H](N(c2cc(C3=CCCCC3)sc2C(=O)O)C(=O)[C@H]2CC[C@H](C)CC2)CC1)C(C)C (relative stereo) [Compound 19, 5-Cyclohex-1-enyl-3-[[trans-4-(1-methoxycarbonyl-2-methyl-propylcarbamoyloxy)-cyclohexyl]-(trans-4-methyl-cyclohexanecarbonyl)amino]-thiophene-2-carboxylic acid] was run?
**A.** Its IC50 is under 5 µM.

**Q.** How did the IC50 turn out when CN1C(=O)N(C)C2(CCC(N(c3cc(C4=CCCCC4)sc3C(=O)O)C(=O)[C@H]3CC[C@H](C)CC3)CC2)C1=O (relative stereo) [Compound 32, 5-cyclohex-1-enyl-3-[(1,3-dimethyl-2,4-dioxo-1,3-diaza-spiro[4.5]dec-8-yl)-(trans-4-methyl-cyclohexanecarbonyl)-amino]-thiophene-2-carboxylic acid] was run?
**A.** The IC50 was under 5 µM.

**Q.** With C[C@H]1CC[C@H](C(=O)N(c2cc(C3=CCC(Oc4ccccc4)CC3)sc2C(=O)O)[C@H]2CC[C@H](O)CC2)CC1 (relative stereo) [Compound 33, 3-[(trans-4-hydroxy-cyclohexyl)-(trans-4-methyl-cyclohexanecarbonyl)-amino]-5-(4-phenoxy-cyclohex-1-enyl)-thiophene-2-carboxylic acid] as the molecule, how does the IC50 read?
**A.** Its IC50 is under 5 µM.

**Q.** With CC1OCC(N(c2cc(C3=CCCCC3)sc2C(=O)O)C(=O)[C@H]2CC[C@H](C)CC2)CO1 (relative stereo) [Compound 36, 5-cyclohex-1-enyl-3-[(trans-4-methyl-cyclohexanecarbonyl)-(2-methyl-[1,3]dioxan-5-yl)-amino]-thiophene-2-carboxylic acid] as the molecule, how does the IC50 read?
**A.** The IC50 was under 5 µM.

**Q.** With CC1CCCC(N(c2cc(C3=CCCCC3)sc2C(=O)O)C(=O)[C@H]2CC[C@H](C)CC2)C1 (relative stereo) [Compound 39, 5-cyclohex-1-enyl-3-[(trans-4-methyl-cyclohexanecarbonyl)-(3-methyl-cyclohexyl)-amino]-thiophene-2-carboxylic acid] as the molecule, how does the IC50 read?
**A.** Its IC50 is under 5 µM.

**Q.** With C[C@H]1CC[C@H](C(=O)N(c2cc(C3=CCCCC3)sc2C(=O)O)C2CC3CCC(C3)C2)CC1 (relative stereo) [Compound 40, 3-[bicyclo[3.2.1]oct-3-yl-(trans-4-methylcyclohexanecarbonyl)-amino]-5-cyclohex-1-enyl-thiophene-2-carboxylic acid] as the molecule, how does the IC50 read?
**A.** Its IC50 is under 5 µM.

**Q.** Which IC50 does the source give for CC1CC=C(c2cc(N(C(=O)[C@H]3CC[C@H](C)CC3)C(C)C)c(C(=O)O)s2)CC1 (relative stereo) [Compound 43, 3-[isopropyl-(trans-4-methyl-cyclohexanecarbonyl)-amino]-5-(4-methyl-cyclohex-1-enyl)-thiophene-2-carboxylic acid] here?
**A.** Its IC50 is under 5 µM.

**Q.** How did the IC50 turn out when C[C@H]1CC[C@H](C(=O)N(c2cc(C3=CC(O)CCC3)sc2C(=O)O)[C@H]2CC[C@H](OC3CCCCO3)CC2)CC1 (relative stereo) [Compound 55, 5-(3-hydroxy-cyclohex-1-enyl)-3-{(trans-4-methyl-cyclohexanecarbonyl)-[trans-4-(tetrahydro-pyran-2-yloxy)-cyclohexyl]amino}-thiophene-2-carboxylic acid] was run?
**A.** Its IC50 is under 5 µM.

**Q.** With C[C@H]1CC[C@H](C(=O)N(c2cc(C3=CCCCC3)sc2C(=O)O)C2CC[S+]([O-])CC2)CC1 (relative stereo) [Compound 69, 5-cyclohex-1-enyl-3-[(trans-4-methyl-cyclohexanecarbonyl)-(1-oxo-hexahydro-1lambda*4*-thiopyran-4-yl)-amino]-thiophene-2-carboxylic acid] as the molecule, how does the IC50 read?
**A.** Its IC50 is under 5 µM.

**Q.** CN1C(=O)N(C)C2(CCC(N(c3cc(C4=CCC(C)(C)CC4)sc3C(=O)O)C(=O)[C@H]3CC[C@H](C)CC3)CC2)C1=O (relative stereo) [Compound 75, 5-(4,4-dimethyl-cyclohex-1-enyl)-3-[(1,3-dimethyl-2,4-dioxo-1,3-diaza-spiro[4.5]dec-8-yl)-(trans-4-methyl-cyclohexanecarbonyl)-amino]-thiophene-2-carboxylic acid] was tested. Which IC50 did it give?
**A.** Its IC50 is under 5 µM.

**Q.** CN1C(=O)N(C)C2(CCC(N(c3cc(C4CCC(C)(C)CC4)sc3C(=O)O)C(=O)[C@H]3CC[C@H](C)CC3)CC2)C1=O (relative stereo) [Compound 79, 5-(4,4-dimethyl-cyclohexyl)-3-[(1,3-dimethyl-2,4-dioxo-1,3-diaza-spiro[4.5]dec-8-yl)-(trans-4-methyl-cyclohexanecarbonyl)-amino]-thiophene-2-carboxylic acid] was tested. Which IC50 did it give?
**A.** Its IC50 is under 5 µM.

**Q.** For C[C@H]1CC[C@H](C(=O)N(c2cc(C3=CC(O)CCC3)sc2C(=O)O)[C@H]2CC[C@H](O)CC2)CC1 (relative stereo) [Compound 82, 5-(3-hydroxy-cyclohex-1-enyl)-3-[(trans-4-hydroxy-cyclohexyl)-(trans-4-methyl-cyclohexanecarbonyl)-amino]-thiophene-2-carboxylic acid], which IC50 is on record?
**A.** The IC50 was 5 to 25 µM.

**Q.** For CO[C@H]1CC[C@H](N(c2cc(C3CCC(C(F)(F)F)CC3)sc2C(=O)O)C(=O)[C@H]2CC[C@H](C)CC2)CC1 (relative stereo) [Compound 108, 3-[(trans-4-methoxy-cyclohexyl)-(trans-4-methyl-cyclohexanecarbonyl)-amino]-5-(4-trifluoromethyl-cyclohexyl)-thiophene-2-carboxylic acid], which IC50 is on record?
**A.** The IC50 was under 5 µM.

**Q.** How did the IC50 turn out when CO[C@H]1CC[C@H](N(c2cc(C3=C(F)CCCC3F)sc2C(=O)O)C(=O)[C@H]2CC[C@H](C)CC2)CC1 (relative stereo) [Compound 119, 5-(2,6-difluoro-cyclohex-1-enyl)-3-[(trans-4-methoxy-cyclohexyl)-(trans-4-methyl-cyclohexanecarbonyl)-amino]-thiophene-2-carboxylic acid] was run?
**A.** The IC50 was under 5 µM.

**Q.** CO[C@H]1CC[C@H](N(c2cc(C3=C(F)C(F)CCC3)sc2C(=O)O)C(=O)[C@H]2CC[C@H](C)CC2)CC1 (relative stereo) [Compound 120, 5-(2,3-difluoro-cyclohex-1-enyl)-3-[(trans-4-methoxy-cyclohexyl)-(trans-4-methyl-cyclohexanecarbonyl)-amino]-thiophene-2-carboxylic acid] was tested. Which IC50 did it give?
**A.** Its IC50 is under 5 µM.

**Q.** How did the IC50 turn out when CO[C@H]1CC[C@H](N(c2cc(C3=CCC(C(F)(F)F)CC3)sc2C(=O)O)C(=O)[C@H]2CC[C@H](C)CC2)CC1 (relative stereo) [Compound 124, 3-[(trans-4-methoxy-cyclohexyl)-(trans-4-methyl-cyclohexanecarbonyl)-amino]-5-(4-trifluoromethyl-cyclohex-1-enyl)-thiophene-2-carboxylic acid] was run?
**A.** The IC50 was under 5 µM.

**Q.** For CCC(=O)N(C)C1CCC(N(c2cc(C3=CCCCC3)sc2C(=O)O)C(=O)[C@H]2CC[C@H](C)CC2)CC1 (relative stereo) [Compound 140, 5-cyclohex-1-enyl-3-{(trans-4-methyl-cyclohexanecarbonyl)-[4-(methyl-propionyl-amino)-cyclohexyl]-amino}-thiophene-2-carboxylic acid], which IC50 is on record?
**A.** Its IC50 is under 5 µM.

**Q.** With C[C@H]1CC[C@H](C(=O)N(c2cc(C3=CCCCC3)sc2C(=O)O)[C@H]2CC[C@H](O)CC2)CC1 [Compound 1, 5-Cyclohex-1-enyl-3-[(trans-4-hydroxy-cyclohexyl)-(trans-4-methyl-cyclohexanecarbonyl)-amino]-thiophene-2-carboxylic acid] as the molecule, how does the IC50 read?
**A.** Its IC50 is under 5 µM.

**Q.** For C[C@H]1CC[C@H](C(=O)N(c2cc(C3CCCCC3)sc2C(=O)O)[C@H]2CC[C@H](O)CC2)CC1 [Compound 2, 5-Cyclohexyl-3-[(trans-4-hydroxy-cyclohexyl)-(trans-4-methyl-cyclohexanecarbonyl)-amino]-thiophene-2-carboxylic acid], which IC50 is on record?
**A.** Its IC50 is under 5 µM.
